Reference: patent publication US10751339B2, “Substituted aminopyrimidine compounds and methods of use” (SUNSHINE LAKE PHARMA CO., LTD., priority 2018, dated 2020)

How the values were obtained:
[1] = Compound stability in human liver microsomes; format: in vitro ADME; details: pH 7.4
Summary of the method: (§1)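 Compounds (5 μM, 0.05% DMSO) incubated in duplicate with liver microsomes (0.5 mg protein/mL) and 1.0 mM NADPH in 100 mM phosphate buffer pH 7.4 at 37 °C, sampled 0–60 min. Remaining compound measured by LC/MS/MS, expressed as percent of zero-time control; denatured-microsome and dextromethorphan controls included.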

[2] = Compound stability in rat liver microsomes; format: in vitro ADME; details: pH 7.4
Summary of the method: as §1

[3] = Pharmacokinetic profiles in rats; format: in vivo, rat
Protocol: The compounds disclosed herein are assessed in pharmacokinetic studies in mice, rats, dogs or monkeys. The compounds are administered as a water solution, 2% HPMC+1% TWEEN®80 in water solution, 5% DMSO+5% solutol in saline, 4% MC suspension or capsule. For the intravenous administration, the animals are generally given at 1 or 2 mg/kg dose. For the oral (p.o.) dosing, mice and rats are generally given 5 or 10 mg/kg dose, and dogs and monkeys are generally given 10 mg/kg dose. The blood samples (0.3 mL) are drawn at 0.25, 0.5, 1.0, 2.0, 3.0, 4.0, 6.0, 8.0, 12 and 24 h time points or 0.083, 0.25, 0.5, 1.0, 2.0, 4.0, 6.0, 8.0 and 24 h time points and centrifuged at 3,000 or 4000 rpm for 2 to 10 min. The plasma solutions are collected, stored at −20° C. or −70° C. until analyzed by LC/MS/MS as described above.

PI3K-α (SKOV3) = experiment: p-AKT HTRF assay, PI3K-α in SKOV3 cells; format: cell-based; details: Homo sapiens, SK-OV-3
Protocol: (§2) Cells were incubated at 37° C. in a 5% CO2 atmosphere overnight. […] Medium was then aspirated and 50 μL/well of lysis buffer was added. Plates were shaked for 45 minutes at room temperature and then 16 ul/well of lysate was transferred to 384-well plate. 4 ul/well of premixed antibody was added to the wells. The plate was centrifuged at 1000 rpm at RT for 1 minute and then incubated for 4 hours at 22° C., and Phospho-AKT (ser473) Kit was used for detection.

PI3K-δ (RAJI) = experiment: p-AKT HTRF assay, PI3K-δ in RAJI cells stimulated with anti-IgM; format: cell-based; details: anti-human IgM stimulation
Protocol: as §2

CCRF-SB = experiment: Cell proliferation assay (CTG), CCRF-SB; format: cell-based; details: Homo sapiens, 72 h
Protocol: (§3) • 1. Harvest cells during the logarithmic growth period and count cell number using Count-star. • 2. Adjust cell concentrations to […] with respective culture medium. • 3. Add 90 μL cell suspensions to 96-well plates with the final cell density of 1×10^4 cells/well. (cell concentration will be adjusted according to the data base or density optimization assay.) • 4. The next day, prepare 10× solution (Top working concentration: 10 μM of test article in media with 3.16-fold serial dilutions to achieve 9 dose levels). • 5. Dispense 10 μL drug solution of both test article and reference control in each well (duplicate for each drug concentration) of the plate.

KARPAS-422 = experiment: Cell proliferation assay (CTG), KARPAS-422; format: cell-based; details: Homo sapiens, 72 h
Protocol: as §3

WSU-NHL = experiment: Cell proliferation assay (CTG), WSU-NHL; format: cell-based; details: Homo sapiens, 72 h
Protocol: as §3

hERG channels [4] = biological target: T1, hERG channels (Homo sapiens (Human), UniProt Q12809); experiment: hERG assay, automated QPatch procedure; format: cell-based
Excerpt: Only stable cells with recording parameters above threshold were allowed to enter the drug application procedure.

hERG channels [5] = biological target: T1, hERG channels; experiment: hERG assay, manual patch-clamp in HEK-293 cells; format: cell-based
Excerpt: Voltage clamp protocol: Computer software was used to set voltage clamp protocols. In whole-cell model, cells were held at −80 mV, first depolarized to −50 mV for 80 ms, and then depolarized to +20 mV for 4800 ms to activate the hERG channels. After that the cells were repolarized to −50 mV for 5000 ms to elicit the characteristic tail currents. Finally the cells were held at −80 mV again. The peak values of tail currents were sampled for analysis.
Manual patch-clamp protocol: The manual patch-clamp system was used to record the hERG currents in human embryonic kidney (HEK-293) cells. The cells were harvested and transferred to the recording charmer on the stage of an inverted microscope and perfused consistently with extracellular solution. The volume of the recording chamber was about 1 mL. The extracellular solution in the chamber was completely exchanged within 1 min at a perfusion rate about 1 mL/min. Patch micropipettes were pulled with micropipette puller. Pipettes were moved to the cells by Micromanipulator and a slight positive pressure was used to clear the surface before seal formation. A high-resistance seal between the surface of the plasma membrane and the tip of pipettes were achieved by a gentle suck. […]
Data was presented as mean±S.E.M. The effects of test article were normalized with the peak currents recorded in vehicle control. […]

T1 sequence (Q12809 whole entry): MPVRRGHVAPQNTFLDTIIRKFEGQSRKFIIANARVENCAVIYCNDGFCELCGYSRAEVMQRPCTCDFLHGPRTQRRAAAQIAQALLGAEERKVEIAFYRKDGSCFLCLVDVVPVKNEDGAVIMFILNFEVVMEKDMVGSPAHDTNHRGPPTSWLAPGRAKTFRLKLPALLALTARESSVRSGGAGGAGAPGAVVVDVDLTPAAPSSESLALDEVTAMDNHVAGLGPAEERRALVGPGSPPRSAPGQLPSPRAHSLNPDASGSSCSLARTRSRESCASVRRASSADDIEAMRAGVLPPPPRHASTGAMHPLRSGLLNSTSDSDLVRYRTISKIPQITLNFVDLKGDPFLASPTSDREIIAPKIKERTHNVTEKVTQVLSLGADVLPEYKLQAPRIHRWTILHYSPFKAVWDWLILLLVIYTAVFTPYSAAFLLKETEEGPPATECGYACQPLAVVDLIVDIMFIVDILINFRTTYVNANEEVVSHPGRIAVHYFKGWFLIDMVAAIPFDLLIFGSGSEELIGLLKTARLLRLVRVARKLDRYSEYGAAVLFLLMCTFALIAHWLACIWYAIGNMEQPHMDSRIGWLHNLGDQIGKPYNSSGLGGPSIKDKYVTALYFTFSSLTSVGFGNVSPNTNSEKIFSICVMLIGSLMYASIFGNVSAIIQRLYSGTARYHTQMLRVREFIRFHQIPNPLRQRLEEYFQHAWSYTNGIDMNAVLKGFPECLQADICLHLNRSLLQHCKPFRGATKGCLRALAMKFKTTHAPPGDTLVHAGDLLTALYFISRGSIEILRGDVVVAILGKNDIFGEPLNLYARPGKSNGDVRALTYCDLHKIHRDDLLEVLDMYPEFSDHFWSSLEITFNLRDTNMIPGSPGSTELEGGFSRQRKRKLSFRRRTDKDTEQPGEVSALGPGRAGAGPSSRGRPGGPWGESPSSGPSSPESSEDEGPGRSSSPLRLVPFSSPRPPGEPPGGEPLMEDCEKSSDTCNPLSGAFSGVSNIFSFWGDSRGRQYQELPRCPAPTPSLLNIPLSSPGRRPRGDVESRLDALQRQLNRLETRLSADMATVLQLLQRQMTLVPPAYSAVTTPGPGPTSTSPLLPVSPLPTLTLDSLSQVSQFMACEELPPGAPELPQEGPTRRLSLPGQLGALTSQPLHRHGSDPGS

CLint scaled at 5 μM ([1]; liver microsomes, in vivo CLint extrapolated from human liver microsome incubation): 36.9 mL/min/kg | half-life at 5 μM ([1]; human liver microsomes 0.5 mg protein/mL, compound 5 μM, NADPH, 37° C., read-out: Human T1/2): 47.1 min | CLint scaled at 5 μM ([2]; liver microsomes, in vivo CLint extrapolated from rat liver microsome incubation): 31 mL/min/kg | half-life at 5 μM ([2]; rat liver microsomes 0.5 mg protein/mL, compound 5 μM, NADPH, 37° C., read-out: Rat T1/2): 80.2 min | clearance ([3]; iv dosing 1 mg/kg): 25 mL/min/kg | AUC(0-t) ([3]; rat, plasma, iv dosing 1 mg/kg): 671 ng·h/mL | half-life ([3]; rat, plasma, iv dosing 1 mg/kg): 54.6 min | Vd ([3]; rat, plasma, iv dosing 1 mg/kg, read-out: Vss): 1.68 L/kg | bioavailability ([3]; rat, plasma, oral bioavailability): 56.8% | IC50 (PI3K-α (SKOV3)): 2600 nM | IC50 (PI3K-δ (RAJI)): 0.65 nM | IC50 (CCRF-SB): 318 nM | IC50 (KARPAS-422): 310 nM
SMILES: Cc1noc(-c2c(N)ncnc2N[C@@H](C)c2nc3cccc(C#CCO)c3c(=O)n2-c2ccccc2)n1 [Example 34, (S)-2-(1-((6-amino-5-(3-methyl-1,2,4-oxadiazol-5-yl)pyrimidin-4-yl)amino)ethyl)-5-(3-hydroxyprop-1-yn-1-yl)-3-phenylquinazolin-4(3H)-one]
IC50 (WSU-NHL): 49 nM | IC50 (hERG channels [4]): > 30000 nM | IC50 (hERG channels [5]): 15300 nM
